Legend:
ISC-enriched organoids [1] = test: Primary screen, 384-well 2.5-D organoid differentiation (ENR+CD, 6 days): basal lysozyme secretion (LYZ.NS); type: cell-based, murine; conditions: primary screen; for Dose.FC.LYZ.NS: FC vs plate median; for Z.LYZ.NS: standard z score; for SSMD.LYZ.NS: strictly standardized mean difference
From the text: (§1) High-throughput screening.

ISC-enriched organoids [2] = test: Primary screen, 384-well 2.5-D organoid differentiation (ENR+CD, 6 days): carbachol-induced lysozyme secretion (LYZ.S); type: cell-based, murine; conditions: primary screen; for Dose.FC.LYZ.S: FC vs plate median; for Z.LYZ.S: standard z score; for SSMD.LYZ.S: strictly standardized mean difference
From the text: as §1

ISC-enriched organoids [3] = test: Primary screen, 384-well 2.5-D organoid differentiation (ENR+CD, 6 days, Target Selective Inhibitor Library, vs whole-plate median): ATP (CellTiter-Glo 3D, CTG); conditions: primary screen; for Dose.FC.CTG: FC vs plate median; for Z.CTG: standard z score; for SSMD.CTG: strictly standardized mean difference
[4] = 1st of the 4 dose lines of the treatment (dose not given)
[5] = 2nd of the 4 dose lines of the treatment (dose not given)
[6] = 3rd of the 4 dose lines of the treatment (dose not given)
[7] = 4th of the 4 dose lines of the treatment (dose not given)

Compound | SSMD.LYZ.NS (ISC-enriched organoids [1]; [4]) | SSMD.LYZ.NS (ISC-enriched organoids [1]; [5]) | SSMD.LYZ.NS (ISC-enriched organoids [1]; [6]) | SSMD.LYZ.NS (ISC-enriched organoids [1]; [7]) | Z.LYZ.S (ISC-enriched organoids [2]; [4]) | Z.LYZ.S (ISC-enriched organoids [2]; [5]) | Z.LYZ.S (ISC-enriched organoids [2]; [6]) | Z.LYZ.S (ISC-enriched organoids [2]; [7]) | SSMD.LYZ.S (ISC-enriched organoids [2]; [4]) | SSMD.LYZ.S (ISC-enriched organoids [2]; [5]) | SSMD.LYZ.S (ISC-enriched organoids [2]; [6]) | SSMD.LYZ.S (ISC-enriched organoids [2]; [7]) | Z.CTG (ISC-enriched organoids [3]; Dose 0.08 uM) | Z.CTG (ISC-enriched organoids [3]; Dose 0.40 uM) | Z.CTG (ISC-enriched organoids [3]; Dose 2.00 uM) | Z.CTG (ISC-enriched organoids [3]; Dose 10.00 uM) | SSMD.CTG (ISC-enriched organoids [3]; [4]) | SSMD.CTG (ISC-enriched organoids [3]; [5]) | SSMD.CTG (ISC-enriched organoids [3]; [6]) | SSMD.CTG (ISC-enriched organoids [3]; [7]) | other results
O=C(c1cn(Cc2cncn2Cc2ccc(Br)cc2)cc1-c1cccc2ccccc12)N1CCOCC1 [LB42708] | −1.118 | −1.157 | −1.034 | −0.939 | −0.576 | −0.934 | −1.539 | −1.509 | −0.519 | −0.630 | −0.965 | −0.864 | −0.172 | −0.817 | −0.277 | −1.685 | −0.254 | −0.531 | −0.186 | −1.059 | Dose.FC.LYZ.NS (ISC-enriched organoids [1]; Dose 0.08 uM): −0.116 log 2 fold change; Z.LYZ.NS (ISC-enriched organoids [1]; Dose 0.08 uM): −1.010; Dose.FC.LYZ.NS (ISC-enriched organoids [1]; Dose 0.40 uM): −0.140 log 2 fold change; Z.LYZ.NS (ISC-enriched organoids [1]; Dose 0.40 uM): −1.221; Dose.FC.LYZ.NS (ISC-enriched organoids [1]; Dose 2.00 uM): −0.176 log 2 fold change; Z.LYZ.NS (ISC-enriched organoids [1]; Dose 2.00 uM): −1.531; Dose.FC.LYZ.NS (ISC-enriched organoids [1]; Dose 10.00 uM): −0.182 log 2 fold change; Z.LYZ.NS (ISC-enriched organoids [1]; Dose 10.00 uM): −1.587; Dose.FC.LYZ.S (ISC-enriched organoids [2]; Dose 0.08 uM): −0.089 log 2 fold change; Dose.FC.LYZ.S (ISC-enriched organoids [2]; Dose 0.40 uM): −0.144 log 2 fold change; Dose.FC.LYZ.S (ISC-enriched organoids [2]; Dose 2.00 uM): −0.238 log 2 fold change; Dose.FC.LYZ.S (ISC-enriched organoids [2]; Dose 10.00 uM): −0.233 log 2 fold change; Dose.FC.CTG (ISC-enriched organoids [3]; Dose 0.08 uM): −0.072 log 2 fold change; Dose.FC.CTG (ISC-enriched organoids [3]; Dose 0.40 uM): −0.342 log 2 fold change; Dose.FC.CTG (ISC-enriched organoids [3]; Dose 2.00 uM): −0.116 log 2 fold change; Dose.FC.CTG (ISC-enriched organoids [3]; Dose 10.00 uM): −0.706 log 2 fold change
Cc1c(C(=O)Nc2ccc(N3C[C@@H](C)O[C@@H](C)C3)nc2)cccc1-c1ccc(OC(F)(F)F)cc1 [LDE225 (NVP-LDE225, Erismodegib)] | 0.869 | 0.731 | 0.074 | 0.268 | 0.613 | 0.481 | 0.013 | 0.038 | 0.704 | 0.415 | 0.013 | 0.025 | 0.255 | 0.159 | 0.546 | −0.002 | 0.313 | 0.163 | 0.681 | −0.001 | Dose.FC.LYZ.NS (ISC-enriched organoids [1]; Dose 0.08 uM): 0.085 log 2 fold change; Z.LYZ.NS (ISC-enriched organoids [1]; Dose 0.08 uM): 0.739; Dose.FC.LYZ.NS (ISC-enriched organoids [1]; Dose 0.40 uM): 0.101 log 2 fold change; Z.LYZ.NS (ISC-enriched organoids [1]; Dose 0.40 uM): 0.881; Dose.FC.LYZ.NS (ISC-enriched organoids [1]; Dose 2.00 uM): 0.011 log 2 fold change; Z.LYZ.NS (ISC-enriched organoids [1]; Dose 2.00 uM): 0.094; Dose.FC.LYZ.NS (ISC-enriched organoids [1]; Dose 10.00 uM): 0.049 log 2 fold change; Z.LYZ.NS (ISC-enriched organoids [1]; Dose 10.00 uM): 0.426; Dose.FC.LYZ.S (ISC-enriched organoids [2]; Dose 0.08 uM): 0.095 log 2 fold change; Dose.FC.LYZ.S (ISC-enriched organoids [2]; Dose 0.40 uM): 0.074 log 2 fold change; Dose.FC.LYZ.S (ISC-enriched organoids [2]; Dose 2.00 uM): 0.002 log 2 fold change; Dose.FC.LYZ.S (ISC-enriched organoids [2]; Dose 10.00 uM): 0.006 log 2 fold change; Dose.FC.CTG (ISC-enriched organoids [3]; Dose 0.08 uM): 0.107 log 2 fold change; Dose.FC.CTG (ISC-enriched organoids [3]; Dose 0.40 uM): 0.067 log 2 fold change; Dose.FC.CTG (ISC-enriched organoids [3]; Dose 2.00 uM): 0.229 log 2 fold change; Dose.FC.CTG (ISC-enriched organoids [3]; Dose 10.00 uM): −0.001 log 2 fold change
Cc1cc(Nc2ncc(Cl)c(Nc3ccccc3S(=O)(=O)C(C)C)n2)c(OC(C)C)cc1C1CCNCC1 [LDK378] | 0.246 | −0.527 | −1.818 | −2.550 | 0.763 | −0.306 | −1.817 | −3.149 | 0.574 | −0.290 | −1.400 | −2.075 | 0.322 | 0.010 | −0.869 | −3.087 | 0.320 | 0.013 | −0.596 | −1.329 | 
c1cc(-c2cnn3cc(-c4ccc(N5CCNCC5)cc4)cnc23)c2cccnc2c1 [LDN-212854] | 0.567 | 0.395 | −1.438 | −1.649 | 1.050 | 0.167 | −1.888 | −2.582 | 0.799 | 0.136 | −1.525 | −1.672 | 0.568 | 0.309 | −1.134 | −3.018 | 0.686 | 0.242 | −1.244 | −1.589 | Dose.FC.LYZ.NS (ISC-enriched organoids [1]; Dose 0.08 uM): 0.095 log 2 fold change; Z.LYZ.NS (ISC-enriched organoids [1]; Dose 0.08 uM): 0.823; Dose.FC.LYZ.NS (ISC-enriched organoids [1]; Dose 0.40 uM): 0.051 log 2 fold change; Z.LYZ.NS (ISC-enriched organoids [1]; Dose 0.40 uM): 0.446; Dose.FC.LYZ.NS (ISC-enriched organoids [1]; Dose 2.00 uM): −0.217 log 2 fold change; Z.LYZ.NS (ISC-enriched organoids [1]; Dose 2.00 uM): −1.885; Dose.FC.LYZ.NS (ISC-enriched organoids [1]; Dose 10.00 uM): −0.273 log 2 fold change; Z.LYZ.NS (ISC-enriched organoids [1]; Dose 10.00 uM): −2.375; Dose.FC.LYZ.S (ISC-enriched organoids [2]; Dose 0.08 uM): 0.162 log 2 fold change; Dose.FC.LYZ.S (ISC-enriched organoids [2]; Dose 0.40 uM): 0.026 log 2 fold change; Dose.FC.LYZ.S (ISC-enriched organoids [2]; Dose 2.00 uM): −0.292 log 2 fold change; Dose.FC.LYZ.S (ISC-enriched organoids [2]; Dose 10.00 uM): −0.399 log 2 fold change; Dose.FC.CTG (ISC-enriched organoids [3]; Dose 0.08 uM): 0.238 log 2 fold change; Dose.FC.CTG (ISC-enriched organoids [3]; Dose 0.40 uM): 0.129 log 2 fold change; Dose.FC.CTG (ISC-enriched organoids [3]; Dose 2.00 uM): −0.475 log 2 fold change; Dose.FC.CTG (ISC-enriched organoids [3]; Dose 10.00 uM): −1.263 log 2 fold change
C[C@H](NC(=O)[C@@H](O)c1cc(F)cc(F)c1)C(=O)N[C@@H]1C(=O)N(C)c2ccccc2-c2ccccc21 [LY411575] | 0.217 | −0.432 | −0.593 | −0.931 | 0.155 | 0.266 | −0.590 | −1.015 | 0.094 | 0.171 | −0.596 | −0.917 | 0.083 | −0.411 | −0.412 | −0.618 | 0.086 | −0.312 | −0.389 | −0.550 | Dose.FC.LYZ.NS (ISC-enriched organoids [1]; Dose 0.08 uM): 0.040 log 2 fold change; Z.LYZ.NS (ISC-enriched organoids [1]; Dose 0.08 uM): 0.347; Dose.FC.LYZ.NS (ISC-enriched organoids [1]; Dose 0.40 uM): −0.050 log 2 fold change; Z.LYZ.NS (ISC-enriched organoids [1]; Dose 0.40 uM): −0.434; Dose.FC.LYZ.NS (ISC-enriched organoids [1]; Dose 2.00 uM): −0.069 log 2 fold change; Z.LYZ.NS (ISC-enriched organoids [1]; Dose 2.00 uM): −0.598; Dose.FC.LYZ.NS (ISC-enriched organoids [1]; Dose 10.00 uM): −0.109 log 2 fold change; Z.LYZ.NS (ISC-enriched organoids [1]; Dose 10.00 uM): −0.949; Dose.FC.LYZ.S (ISC-enriched organoids [2]; Dose 0.08 uM): 0.024 log 2 fold change; Dose.FC.LYZ.S (ISC-enriched organoids [2]; Dose 0.40 uM): 0.041 log 2 fold change; Dose.FC.LYZ.S (ISC-enriched organoids [2]; Dose 2.00 uM): −0.091 log 2 fold change; Dose.FC.LYZ.S (ISC-enriched organoids [2]; Dose 10.00 uM): −0.157 log 2 fold change; Dose.FC.CTG (ISC-enriched organoids [3]; Dose 0.08 uM): 0.035 log 2 fold change; Dose.FC.CTG (ISC-enriched organoids [3]; Dose 0.40 uM): −0.172 log 2 fold change; Dose.FC.CTG (ISC-enriched organoids [3]; Dose 2.00 uM): −0.172 log 2 fold change; Dose.FC.CTG (ISC-enriched organoids [3]; Dose 10.00 uM): −0.259 log 2 fold change

Source: patent US20230398130A1, “METHODS AND COMPOSITIONS FOR DIFFERENTIATING STEM CELLS” (Massachusetts Institute of Technology, priority 2020, published 2023)
